Results taken from US20140235533A1, “DIHYDROFURAN DERIVATIVES AS INSECTICIDAL COMPOUNDS” (SYNGENTA PARTICIPATIONS AG, priority 2011, published 2014).

Experiments:
Format in all cases: in vivo
Plutella xylostella = Plutella xylostella (diamond back moth) artificial diet MTP test; details: 144 h, 200 ppm (concentration in well 18 ppm), L2 larvae, larval mortality and growth regulation after 6 days
Description: (§1) Plutella xylostella (Diamond Back Moth): 24-well microtiter plate (MTP) with artificial diet was treated with test solutions at an application rate of 200 ppm (concentration in well 18 ppm) by pipetting. After drying, the MTPs were infested with L2 larvae (7-12 per well). After an incubation period of 6 days, samples were checked for larval mortality and growth regulation.

Heliothis virescens = Heliothis virescens (tobacco budworm) egg test on artificial diet; details: 96 h, 200 ppm (concentration in well 18 ppm), eggs 0-24 h old on artificial diet, egg mortality, larval mortality, growth regulation after 4 days
Description: Heliothis virescens (Tobacco Budworm):
Eggs (0-24 h old) were placed in 24-well microtiter plate on artificial diet and treated with test solutions at an application rate of 200 ppm (concentration in well 18 ppm) by pipetting. After an incubation period of 4 days, samples were checked for egg mortality, larval mortality, and growth regulation. The following compound gave at least 80% control of Heliothis virescens: A1, A2, A03, A05, A06, A07, A08, A09, A10, A11, A12, A13, A14, A15, A16, A17, A18, A19, A20, A21, A22, A25, A26, A27, A31, A32, A34, A37, A39, A40, A42, A44, A45, A46, A47, A48, A49, A50, A51, A52, A53, B1**.

Spodoptera littoralis = Spodoptera littoralis (Egyptian cotton leafworm) cotton leaf disc spray test; details: foliar, 72 h, 200 ppm spray on cotton leaf discs, 5 L1 larvae, mortality, feeding behavior, growth regulation 3 days after treatment
Source text: Spodoptera littoralis (Egyptian Cotton Leafworm) Cotton leaf discs were placed on agar in a 24-well microtiter plate and sprayed with test solutions at an application rate of 200 ppm. After drying, the leaf discs were infested with 5 L1 larvae. The samples were checked for mortality, feeding behavior, and growth regulation 3 days after treatment (DAT).

Diabrotica balteata = Diabrotica balteata (corn root worm) artificial diet MTP test; details: 120 h, 200 ppm (concentration in well 18 ppm), L2 larvae, larval mortality and growth regulation after 5 days
Description: as §1, with “Diabrotica balteata (Corn Root Worm): A” for “Plutella xylostella (Diamond Back Moth):”, “(6-10” for “(7-12”, “5” for “6”

| Structure (SMILES) | pest or weed control at 200 ppm (Plutella xylostella) | pest or weed control at 200 ppm (Heliothis virescens) | pest or weed control at 200 ppm (Spodoptera littoralis) | pest or weed control at 200 ppm (Diabrotica balteata) |
| --- | --- | --- | --- | --- |
| O=C(NCc1ccc(C2=COC(c3cc(Cl)cc(Cl)c3)(C(F)(F)F)C2)cc1Cl)c1cc(Cl)ccc1Cl (centres unmarked) [Compound A28, 2,5-dichloro-N-[[2-chloro-4-[2-(3,5-dichlorophenyl)-2-(trifluoromethyl)-3H-furan-4-yl]phenyl]methyl]benzamide] | ≥ 80% |  |  |  |
| O=C(NCc1ccc(C2=COC(c3cc(Cl)cc(Cl)c3)(C(F)(F)F)C2)cc1Cl)c1ccc2sccc2c1 (centres unmarked) [Compound A37, N-[[2-chloro-4-[2-(3,5-dichlorophenyl)-2-(trifluoromethyl)-3H-furan-4-yl]phenyl]methyl]benzothiophene-5-carboxamide] |  | ≥ 80% |  |  |
| O=C(NCc1ccc(C2=COC(c3cc(Cl)cc(Cl)c3)(C(F)(F)F)C2)cc1Cl)c1ncoc1-c1ccccc1 (centres unmarked) [Compound A38, N-[[2-chloro-4-[2-(3,5-dichlorophenyl)-2-(trifluoromethyl)-3H-furan-4-yl]phenyl]methyl]-5-phenyl-oxazole-4-carboxamide] |  |  | ≥ 80% |  |
| O=C(/C=C/c1ccccc1F)NCc1ccc(C2=COC(c3cc(Cl)cc(Cl)c3)(C(F)(F)F)C2)cc1Cl (centres unmarked) [Compound A16, (E)-N-[[2-chloro-4-[2-(3,5-dichlorophenyl)-2-(trifluoromethyl)-3H-furan-4-yl]phenyl]methyl]-3-(2-fluorophenyl)prop-2-enamide] |  | ≥ 80% |  |  |
| CSc1ccc(C(=O)NCc2ccc(C3=COC(c4cc(Cl)cc(Cl)c4)(C(F)(F)F)C3)cc2Cl)cc1 (centres unmarked) [Compound A27, N-[[2-chloro-4-[2-(3,5-dichlorophenyl)-2-(trifluoromethyl)-3H-furan-4-yl]phenyl]methyl]-4-methylsulfanyl-benzamide] |  | ≥ 80% |  | ≥ 80% |
| O=C(NCc1ccc(C2=COC(c3cc(Cl)cc(Cl)c3)(C(F)(F)F)C2)cc1Cl)c1ccc2nsnc2c1 (centres unmarked) [Compound A21, N-[[2-chloro-4-[2-(3,5-dichlorophenyl)-2-(trifluoromethyl)-3H-furan-4-yl]phenyl]methyl]-2,1,3-benzothiadiazole-5-carboxamide] |  | ≥ 80% |  |  |
| O=C(CSc1nc2ccccc2[nH]1)NCc1ccc(C2=COC(c3cc(Cl)cc(Cl)c3)(C(F)(F)F)C2)cc1Cl (centres unmarked) [Compound A12, 2-(1H-benzimidazol-2-ylsulfanyl)-N-[[2-chloro-4-[2-(3,5-dichlorophenyl)-2-(trifluoromethyl)-3H-furan-4-yl]phenyl]methyl]acetamide] | ≥ 80% | ≥ 80% |  |  |
| O=C(NCc1ccc(C2=COC(c3cc(Cl)cc(Cl)c3)(C(F)(F)F)C2)cc1Cl)c1cnnc2ccccc12 (centres unmarked) [Compound A34, N-[[2-chloro-4-[2-(3,5-dichlorophenyl)-2-(trifluoromethyl)-3H-furan-4-yl]phenyl]methyl]cinnoline-4-carboxamide] | ≥ 80% | ≥ 80% |  |  |
| O=C(NCc1ccc(C2=COC(c3cc(Cl)cc(Cl)c3)(C(F)(F)F)C2)cc1Cl)c1c[nH]cn1 (centres unmarked) [Compound A31, N-[[2-chloro-4-[2-(3,5-dichlorophenyl)-2-(trifluoromethyl)-3H-furan-4-yl]phenyl]methyl]-1H-imidazole-4-carboxamide] | ≥ 80% | ≥ 80% | ≥ 80% |  |
| O=C(/C=C/c1ccccc1Cl)NCc1ccc(C2=COC(c3cc(Cl)cc(Cl)c3)(C(F)(F)F)C2)cc1Cl (centres unmarked) [Compound A17, (E)-N-[[2-chloro-4-[2-(3,5-dichlorophenyl)-2-(trifluoromethyl)-3H-furan-4-yl]phenyl]methyl]-3-(2-chlorophenyl)prop-2-enamide] |  | ≥ 80% |  |  |
| CSC1(C(=O)NCc2ccc(C3=COC(c4cc(Cl)cc(Cl)c4)(C(F)(F)F)C3)cc2Cl)CC1 (centres unmarked) [Compound A49, N-[[2-chloro-4-[2-(3,5-dichlorophenyl)-2-(trifluoromethyl)-3H-furan-4-yl]phenyl]methyl]-1-methylsulfanyl-cyclopropanecarboxamide] | ≥ 80% | ≥ 80% | ≥ 80% |  |
| O=C(CCC(=O)c1ccccc1)NCc1ccc(C2=COC(c3cc(Cl)cc(Cl)c3)(C(F)(F)F)C2)cc1Cl (centres unmarked) [Compound A13, N-[[2-chloro-4-[2-(3,5-dichlorophenyl)-2-(trifluoromethyl)-3H-furan-4-yl]phenyl]methyl]-4-oxo-4-phenyl-butanamide] | ≥ 80% | ≥ 80% | ≥ 80% |  |
| O=C(NCc1ccc(C2=COC(c3cc(Cl)cc(Cl)c3)(C(F)(F)F)C2)cc1Cl)c1ccc(-c2ccccn2)s1 (centres unmarked) [Compound A42, N-[[2-chloro-4-[2-(3,5-dichlorophenyl)-2-(trifluoromethyl)-3H-furan-4-yl]phenyl]methyl]-5-(2-pyridyl)thiophene-2-carboxamide] |  | ≥ 80% |  |  |
| O=C(/C=C/c1ccco1)NCc1ccc(C2=COC(c3cc(Cl)cc(Cl)c3)(C(F)(F)F)C2)cc1Cl (centres unmarked) [Compound A10, (E)-N-[[2-chloro-4-[2-(3,5-dichlorophenyl)-2-(trifluoromethyl)-3H-furan-4-yl]phenyl]methyl]-3-(2-furyl)prop-2-enamide] | ≥ 80% | ≥ 80% |  |  |
| O=C(COc1ccc(Cl)cc1)NCc1ccc(C2=COC(c3cc(Cl)cc(Cl)c3)(C(F)(F)F)C2)cc1Cl (centres unmarked) [Compound A25, N-[[2-chloro-4-[2-(3,5-dichlorophenyl)-2-(trifluoromethyl)-3H-furan-4-yl]phenyl]methyl]-2-(4-chlorophenoxy)acetamide] |  | ≥ 80% |  |  |
| O=C(NCc1ccc(C2=COC(c3cc(Cl)cc(Cl)c3)(C(F)(F)F)C2)cc1Cl)c1ccc2c(c1)OCCCO2 (centres unmarked) [Compound A32, N-[[2-chloro-4-[2-(3,5-dichlorophenyl)-2-(trifluoromethyl)-3H-furan-4-yl]phenyl]methyl]-3,4-dihydro-2H-1,5-benzodioxepine-7-carboxamide] |  | ≥ 80% |  |  |
| O=C(CCc1ccccc1)NCc1ccc(C2=COC(c3cc(Cl)cc(Cl)c3)(C(F)(F)F)C2)cc1Cl (centres unmarked) [Compound A09, N-[[2-chloro-4-[2-(3,5-dichlorophenyl)-2-(trifluoromethyl)-3H-furan-4-yl]phenyl]methyl]-3-phenyl-propanamide] | ≥ 80% | ≥ 80% |  | ≥ 80% |
| Cc1onc(-c2ccccc2)c1C(=O)NCc1ccc(C2=COC(c3cc(Cl)cc(Cl)c3)(C(F)(F)F)C2)cc1Cl (centres unmarked) [Compound A45, N-[[2-chloro-4-[2-(3,5-dichlorophenyl)-2-(trifluoromethyl)-3H-furan-4-yl]phenyl]methyl]-5-methyl-3-phenyl-isoxazole-4-carboxamide] |  | ≥ 80% |  |  |
| O=C(NCc1ccc(C2=COC(c3cc(Cl)cc(Cl)c3)(C(F)(F)F)C2)cc1Cl)c1ccc(O)c(F)c1 (centres unmarked) [Compound A52, N-[[2-chloro-4-[2-(3,5-dichlorophenyl)-2-(trifluoromethyl)-3H-furan-4-yl]phenyl]methyl]-3-fluoro-4-hydroxy-benzamide] | ≥ 80% | ≥ 80% |  |  |
